Reference: US20110312897A1, “CATHEPSIN L PROTEOLYTICALLY PROCESSES HISTONE H3 DURING MOUSE EMBRYONIC STEM CELL DIFFERENTIATION” (THE ROCKEFELLER UNIVERSITY, priority 2008, published 2011)
Each block holds one compound with its values, some of them ahead of it. Where a SMILES comes first, the peptide text is derived from it. Where no end group is shown, it is not given here. The star is where a group is joined. Cbz = O=C(OCc1ccccc1)*; CH2F = FC*

Columns and labels:
[1] = target: T1, H3 protease activity in fraction #23 (Mus musculus, UniProt P06797); test: In vitro H3 cleavage assay of hydroxyapatite fraction #23 +/- protease inhibitors; assay type: biochemical
T1 construct: a double chain mature form at ˜25 kD and ˜5 kD; endogenous in cells; host or cells: chromatin of 3 days +RA differentiating mouse ESCs (LF2), hydroxyapatite fraction #23
T1 sequence (P06797 114-288 limits assumed): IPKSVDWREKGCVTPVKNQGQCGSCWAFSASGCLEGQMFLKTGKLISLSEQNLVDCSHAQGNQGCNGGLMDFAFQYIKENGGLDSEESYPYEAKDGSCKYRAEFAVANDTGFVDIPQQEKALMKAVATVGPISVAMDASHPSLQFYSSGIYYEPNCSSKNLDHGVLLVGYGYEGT
T1 sequence (P06797 291-334 limits assumed): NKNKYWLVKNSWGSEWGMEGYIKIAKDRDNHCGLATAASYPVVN
Experimental: (§1) Extracts were incubated in buffer (10 mM HEPES, 10 mM KCl, 1.5 mM MgCl2, 0.34M sucrose, 10% glycerol, 5 mM β-mercaptoethanol, all final) with 0.1 μg/μl rH3-HIS (purified from E. coli) and incubated at 37° C. for 1-3 hours. Reactions were stopped by addition of 5×SDS sample buffer and boiling; results were analyzed by immunoblotting with HIS-HRP and/or H3.cs1 antibody. For MS analysis, reactions were quenched by addition of 0.1% (final) TFA. rCathepsin L (R&D Systems, # 1515-CY-010), rCathepsin B (R&D Systems Cat No. BAF965), and rCathepsin K (Calbiochem Cat. No. 342001) were purchased from commercial sources and tested in the assay with rH3-HIS.
Three days+RA differentiating ESC chromatin pellets were solubilized by sonication in buffer A (80 mM NaPO^−4, 200 mM NaCl), injected onto a 2 or 5 mL hydroxyapatite column (BioRad), and fractionated with a 200 mM to 2M NaCl gradient. Each fraction was then assayed as described above. […] Digest was then acidified with glacial acetic acid and aliquots of samples were analyzed using an LTQ-FT as described above. Data was searched against a mouse database using SEQUEST (Eng et al., Journal of the American Society of Mass Spectrometry 5:976-989 (1994), which is hereby incorporated by reference in its entirety). All spectra of interest were manually validated.
To validate further the identification of Cathepsin L as a histone H3 protease, the enriched fractions were tested with different classes of protease inhibitors in the H3 cleavage assay.

[2] = target: T2, Cathepsin B (Mus musculus, UniProt P10605); test: Chemical inhibition in RA-differentiating ESCs, Cathepsin B immunoblot; assay type: cell-based; details: 10 uM in cell media, RA differentiation, vs control cells
T2 construct: endogenous in cells; host or cells: mouse ES cells (LF2 line), RA-differentiated
T2 sequence (P10605 80-333): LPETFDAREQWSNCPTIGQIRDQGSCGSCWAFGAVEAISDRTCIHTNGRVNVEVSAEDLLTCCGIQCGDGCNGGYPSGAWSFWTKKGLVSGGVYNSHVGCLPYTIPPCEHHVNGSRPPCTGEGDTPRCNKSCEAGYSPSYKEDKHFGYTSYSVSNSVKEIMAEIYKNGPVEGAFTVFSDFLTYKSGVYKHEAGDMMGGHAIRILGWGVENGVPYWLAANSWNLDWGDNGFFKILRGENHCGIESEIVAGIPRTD
Experimental: ES cells (LF2 line) were cultured as previously described (Bernstein et al., “Mouse Polycomb Proteins Bind Differentially to Methylated Histone H3 and RNA and are Enriched in Facultative Heterochromatin,” Mol Cell Biol 26:2560-2569 (2006), which is hereby incorporated by reference in its entirety). Cells were grown on gelatin-coated plates without feeder cells and maintained in an undifferentiated state through culture in KODMEM (Invitrogen 1082-9018)), 2 mM L-glutamine (Sigma G7513), 15% ES grade fetal bovine serum (Gibco 10439-024), 10^−4 mM 2-mercaptoethanol, and leukemia inhibitory factor (LIF). To differentiate, cells were plated sparsely at ˜1*10^4 cells/cm^2, allowed to adhere overnight and then fed with differentiation media containing DMEM, 10% FBS, 10^−4 mM 2-mercaptoethanol and, for retinoic acid (RA) differentiation, 100 nM all-trans-RA (Sigma R2625). […]
(§2) To further assess whether Cathepsin L causes histone H3 cleavage in vivo, a commercially available, cell-permeable Cathepsin L specific inhibitor, Cathepsin L Inhibitor I, was used Inhibition of Cathepsin L using a chemical inhibitor allowed the effect of Cathepsin L inhibition to be assessed within a single, wild-type cell line rather than comparing individual cell lines created by drug selection. […]

[3] = target: T3, Cathepsin L (Mus musculus, UniProt P06797); test: Chemical inhibition of Cathepsin L in RA-differentiating ESCs (immunoblot); assay type: cell-based; details: 10 uM in cell media, RA differentiation
T3 construct: endogenous in cells; host or cells: mouse ES cells (LF2 line), RA-differentiated
T3 sequence (P06797 114-334): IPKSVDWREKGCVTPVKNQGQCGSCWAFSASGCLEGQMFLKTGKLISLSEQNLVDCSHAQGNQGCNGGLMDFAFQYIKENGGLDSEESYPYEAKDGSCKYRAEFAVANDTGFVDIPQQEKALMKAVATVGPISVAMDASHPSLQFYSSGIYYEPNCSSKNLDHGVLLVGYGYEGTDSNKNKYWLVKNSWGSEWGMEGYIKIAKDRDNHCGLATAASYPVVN
Experimental: (§3) ES cells (LF2 line) were cultured as previously described (Bernstein et al., “Mouse Polycomb Proteins Bind Differentially to Methylated Histone H3 and RNA and are Enriched in Facultative Heterochromatin,” Mol Cell Biol 26:2560-2569 (2006), which is hereby incorporated by reference in its entirety). Cells were grown on gelatin-coated plates without feeder cells and maintained in an undifferentiated state through culture in KODMEM (Invitrogen 1082-9018)), 2 mM L-glutamine (Sigma G7513), 15% ES grade fetal bovine serum (Gibco 10439-024), 10^−4 mM 2-mercaptoethanol, and leukemia inhibitory factor (LIF). To differentiate, cells were plated sparsely at ˜1*10^4 cells/cm^2, allowed to adhere overnight and then fed with differentiation media containing DMEM, 10% FBS, 10^−4 mM 2-mercaptoethanol and, for retinoic acid (RA) differentiation, 100 nM all-trans-RA (Sigma R2625). Embryoid body formation was accomplished by splitting partially trypsinized cells onto non-treated petri dishes and allowing cells to cluster. Chemical inhibition of Cathepsin L was accomplished by adding 10 uM [final] Cathepsin L I inhibitor (Calbiochem, Cat. No. 219402) to the cell media.
Whole cell extracts were prepared by resuspending fresh or flash frozen cell pellets in SDS-Laemmli sample buffer and boiling immediately. […]
as §2

[4] = test system: differentiating ESCs; test: Pluripotency and lineage marker expression in differentiating ESCs (immunoblot, Q-PCR); assay type: cell-based, mouse; details: for Nanog expression: inhibitor vs control cells
Text: FIGS. 15A-15C show the effect of in vivo chemical inhibition of Cathepsin L on the transcriptional profile of differentiating ESCs. Cells were differentiated with RA in the presence of either Cathepsin L I inhibitor or DMSO alone, as in FIG. 6B. mRNA was isolated from those cells at the time points indicated, reverse transcribed into cDNA, and assayed for the expression of specific genes by Q-PCR with SYBR green. The data shown in FIGS. 15A-15C represent the average of two independent experiments.
as §3
RNA was isolated from undifferentiated and +RA differentiating ESCs using Trizol reagent as directed by the manufacturer (Invitrogen Cat. No. 15596-018). RNA was transcribed into cDNA using the First Strand Superscript kit (Invitrogen Cat. No. 18080-051) and analyzed by quantitative PCR using SYBRgreen reagent (Applied Biosystems Cat. No. 4309155).
Importantly, neither Oct-3/4 nor Cathepsin B levels (FIG. 6C, panels d and e) appeared to change upon addition of the inhibitor.

[5] = target: H3 cleavage activity (Mus musculus, UniProt P06797); test: H3 cleavage activity with addition of chelators; assay type: biochemical; details: moderately high concentrations
Chain of H3 cleavage activity (P06797 114-334): as above
Experimental: as §1, with “Reactions were stopped by addition of 5×SDS sample buffer and boiling; results were analyzed by immunoblotting with HIS-HRP and/or H3.cs1 antibody.” left out, “rH[…].” for “rH3-HIS.”

[6] = target: T4, rCathepsin L (Mus musculus, UniProt P06797); test: ELISA based H3cs.1 cleavage assay of H3 15-31 peptides; assay type: biochemical; details: pH 7.5 and pH 5.5; compared to unmodified H3 15-31 peptide
T4 construct: purchased R&D Systems 1515-CY-010
T4 sequence (P06797 114-334): as above
Experimental: FIG. 7A is an immunoblot showing cleavage of the modified recombinant histone 3 substrates following incubation with rCathepsin L. The four rH3 substrates used in the cleavage assay include: 1=rH3 unmodified, 2=rH3 alkylated to K27me2, 3=rH3 pan-acetylated with acetic anhydride, 4=rH3+K27me2 pan-acetylated with acetic anhydride. FIG. 7B is a graph showing the amount of recombinant H3 cleavage product formed following incubation with Cathepsin L. H3 cleavage reactions were performed as in FIG. 7A using synthesized H3 peptides representing amino acids 15 to 31. Reactions were incubated with ˜250 pmol peptide and quenched with 0.1% TFA before being plated in duplicate for ELISA with the H3cs.1 antibody. Signal was normalized to that of mock reactions for each peptide. Results represent three independent experiments. […] Binding decreases 3-fold with cleaved peptide. p<0.01. Kds are in μM±SEM. Data points represent the mean±SD
In order to test the effect of these modifications more quantitatively and specifically, a set of five peptides with identical backbone sequences flanking the H3 cleavage site (H3 15-31) were synthesized and then modified as follows: unmodified, K18 acetyl, K23 acetyl, K18ac+K23ac, and K27me2. An ELISA based assay using the H3cs.1 antibody described previously (characterized in FIG. 11) was used to quantitatively measure the H3cs.1 cleavage activity of rCathepsin L on these peptides.

[7] = Q-PCR, after 3 days of differentiation, vs control cells

Compound: NCCc1ccc(S(=O)(=O)F)cc1 [AEBSF]
H3 cleavage activity ([1]; AEBSF 2 mM and 10 mM): not at the lower concentrations tested
H3 cleavage activity ([1]; AEBSF 20 mM): modest reduction in cleavage activity

Compound: K18ac+K23ac: synthesized H3 15-31 peptide acetylated at K18 and K23 (APRK(Ac)QLATK(Ac)AARKSAPA; UniProt P68433 16-32, looked up, fragment)
H3cs.1 cleavage activity of rCathepsin L on peptide [6]: very little cleavage activity

Compound: K27me2: synthesized H3 15-31 peptide modified with K27me2 (APRKQLATKAARKSAPA; K27 dimethylation; UniProt P68433 16-32, looked up, fragment)
H3cs.1 cleavage activity of rCathepsin L on peptide [6]: strongly increases

Now from value to compound, other results behind:

Cathepsin B levels [2]: consistency of Cathepsin B levels
all cleavage detected by the H3-general antibody [3]: abolished
histone H3 cleavage (H3-general and H3.cs1 antibodies) ([3]; vs DMSO): decreased significantly
Compound: O=C(NC(Cc1ccccc1)C(=O)NC(Cc1ccccc1)C(=O)CF)OCc1ccccc1 (stereo not drawn) [Cathepsin L Inhibitor I] (Cbz-Phe-Phe-CH2F; configuration not given here)
processing of Cathepsin L from intermediate form into mature form ([3]; vs DMSO): significant failure to fully process Cathepsin L
Nestin expression [4, 7]: trend toward maintaining higher expression
Pax3 expression [4, 7]: trend toward maintaining higher expression
Nanog expression ([4]; Q-PCR): remains unaffected
Nanog expression ([4]; Q-PCR, listed as Cathepsin L I inhibitor): does not differ significantly
Gata6 expression ([4]; Q-PCR, vs control): decreased expression
Sox17 expression ([4]; Q-PCR, vs control): decreased expression
HoxA1 expression ([4]; Q-PCR, vs control cells): did not show any significant trend
Musashi expression ([4]; Q-PCR, vs control cells): did not show any significant trend
Oct-3/4 loss pattern (pluripotency marker) ([4]; immunoblot, RA differentiation): unchanged

H3 cleavage activity [5]: Significant inhibition
Compound: O=C(O)CN(CCN(CC(=O)O)CC(=O)O)CC(=O)O [EDTA, Ethylenediaminetetraacetic acid]

H3 cleavage activity [5]: Significant inhibition
Compound: O=C(O)CN(CCOCCOCCN(CC(=O)O)CC(=O)O)CC(=O)O [EGTA]

H3cs.1 cleavage activity of rCathepsin L on peptide [6]: increases
Compound: K18 acetyl: synthesized H3 15-31 peptide acetylated at K18 (APRKQLATKAARKSAPA; K18 acetylation; UniProt P68433 16-32, looked up, fragment)

H3cs.1 cleavage activity of rCathepsin L on peptide [6]: very little cleavage activity
Compound: K23ac: synthesized H3 15-31 peptide acetylated at K23 (APRKQLATK(Ac)AARKSAPA; UniProt P68433 16-32, looked up, fragment)
